Consider 20 molecules from patent US20240043435A1, “TYK-2 INHIBITOR” (BEIGENE, LTD., priority 2020, published 2024).

A value given as a limit tells only on which side of the number the result lay.

Experiment [1] addresses T1, TYK2-JH2 (aa 575-869, in-house) protein (Homo sapiens, UniProt P29597).
T1 construct: TYK2-JH2 (aa 575-869, in-house) protein; made in house
The experiment is described as follows: TYK2-JH2 biochemical assay (HTRF probe displacement). Format: binding. To be noted: Biochemical assay; read-out: TYK2-JH2 IC50. An outline of the steps:
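HTRF probe-displacement format: compound dilutions (10 points, 5-fold, from 500 uM in DMSO at 500×) were combined with 0.2 nM TYK2-JH2 protein for 0.5 h at room temperature in HEPES pH 7.5 buffer with MgCl2, BSA, DTT and Brij-35. Percent inhibition came from the 615/665 nm fluorescence ratio, fitted to a four-parameter logistic for IC50.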

Experiment [2] relates to JAK2, TYK2/p-STAT4 (Tyr693) activated by IL-12 in NK-92 cell line. Description: IL-12-JAK2, TYK2/p-STAT4 (Tyr693) inhibition IC50 cellular assay. Format: cell-based. The settings on record: for Selectivity fold (TYK2/JAK2): Cellular assay, pSTAT5/GM-CSF IC50 vs pSTAT4/IL-12 IC50; for IC50: NK92, Cellular assay, read-out: pSTAT4/IL-12 IC50. An outline of the steps: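 p-STAT4 (Tyr693) in lysates was measured by AlphaLISA SureFire Ultra after a 30 min IL-12 challenge (40 ng/ml final) at 37° C. Overnight-starved, IL-2-free NK-92 cells had been pretreated 1 h with compound at 10000 to 0.61 nM (4-fold, 8 points). IC50 values came from four-parameter logistic fitting.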

A further experiment relates to pSTAT5/GM-CSF. The experiment is described as follows: pSTAT5/GM-CSF cellular assay (JAK2 selectivity). It is filed as cell-based. The settings on record: for Selectivity fold (TYK2/JAK2): pSTAT5/GM-CSF IC50 over pSTAT4/IL-12 IC50.

T1 sequence (P29597 575-869): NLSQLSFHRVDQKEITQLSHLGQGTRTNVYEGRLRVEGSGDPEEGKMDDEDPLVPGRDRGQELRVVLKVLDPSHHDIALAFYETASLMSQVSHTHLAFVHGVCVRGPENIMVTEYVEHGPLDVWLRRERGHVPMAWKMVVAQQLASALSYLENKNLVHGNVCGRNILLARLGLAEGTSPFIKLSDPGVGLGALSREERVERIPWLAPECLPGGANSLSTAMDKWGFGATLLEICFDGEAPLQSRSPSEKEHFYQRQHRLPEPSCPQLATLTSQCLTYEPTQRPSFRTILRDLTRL

As for `COC1CN(c2cc(Nc3cc(NC(C)=O)ncc3-c3ccc(N4C[C@@H](C)O[C@@H](C)C4)cn3)nc(S(C)(=O)=O)c2)C1` [Example C25, N-(5-(cis-2,6-dimethyl-morpholino)-4′-((4-(3-methoxy-azetidin-1-yl)-6-(methylsulfonyl)pyridin-2-yl)amino)-[2,3′-bipyridin]-6′-yl)acetamide], the IC50 in experiment [1] is 0.037 nM; in experiment [2], 0.827 nM; in the experiment on pSTAT5/GM-CSF it was 1.06 µM. Moreover, in experiment [2], the “Selectivity fold (TYK2/JAK2)” value is 1288 fold.

Turning to `COc1ccc(S(C)(=O)=O)nc1Nc1cc(NC(C)=O)ncc1-c1ccn(C)n1` [Example J23, N-(4-((3-methoxy-6-(methylsulfonyl)pyridin-2-yl)amino)-5-(1-methyl-1H-pyrazol-3-yl)pyridin-2-yl)acetamide], the IC50 is 0.044 nM in experiment [1], 0.862 nM in experiment [2] and 1.35 µM in the experiment on pSTAT5/GM-CSF. Also, the “Selectivity fold (TYK2/JAK2)” value in the experiment on pSTAT5/GM-CSF was determined as 1570 fold.

For the molecule `COc1ccc(-c2cnc(NC(C)=O)cc2Nc2cc(OC(C)C)cc(S(C)(=O)=O)n2)nn1` [Example A26, N-(4-((4-isopropoxy-6-(methylsulfonyl)pyridin-2-yl)amino)-5-(6-methoxypyridazin-3-yl)pyridin-2-yl)acetamide], the IC50 in experiment [1] is 0.032 nM; in experiment [2], 0.405 nM; in the experiment on pSTAT5/GM-CSF, above 10 µM. Further, the “Selectivity fold (TYK2/JAK2)” value in experiment [2] was above 24691 fold.

On to `CC(=O)Nc1cc(Nc2cc(OC(C)C)cc(S(C)(=O)=O)n2)c(-c2ccn(C3CCC3)n2)cn1` [Example A19, N-(5-(1-cyclobutyl-1H-pyrazol-3-yl)-4-((4-isopropoxy-6-(methylsulfonyl)pyridin-2-yl)amino)pyridin-2-yl)acetamide], for which the figures for the IC50 (in experiment [1]; in experiment [2]; in the experiment on pSTAT5/GM-CSF) were 0.034 nM, 1.53 nM and above 10 µM, respectively. The “Selectivity fold (TYK2/JAK2)” value in experiment [2] is on record as above 6535 fold.

Regarding `CC(=O)Nc1cc(Nc2cc(OC3CC3)cc(S(C)(=O)=O)c2)c(-c2ccc(C(C)(C)O)cn2)cn1` [Example H23, N-(4′-((3-cyclopropoxy-5-(methylsulfonyl)phenyl)amino)-5-(2-hydroxypropan-2-yl)-[2,3′-bipyridin]-6′-yl)acetamide], the IC50 in experiment [1] was 0.034 nM; in experiment [2] it was 5.7 nM; in the experiment on pSTAT5/GM-CSF it was above 10 µM. The “Selectivity fold (TYK2/JAK2)” value in experiment [2] is above 1754 fold.

For `COCc1cc(Nc2cc(NC(C)=O)ncc2-c2ccc(C(C)(C)O)cn2)cc(S(C)(=O)=O)c1` [Example H16, N-(5-(2-hydroxypropan-2-yl)-4′-((3-(methoxymethyl)-5-(methylsulfonyl)phenyl)amino)-[2,3′-bipyridin]-6′-yl)acetamide], the IC50 was 0.028 nM in experiment [1], 7.51 nM in experiment [2] and above 10 µM in the experiment with pSTAT5/GM-CSF. Besides, the “Selectivity fold (TYK2/JAK2)” value in experiment [2] is listed as above 1331 fold.

Take `CC(=O)Nc1cc(Nc2cc(Cl)cc(S(C)(=O)=O)c2)c(-c2ccn(C)n2)cn1` [Example J31, N-(4-((3-chloro-5-(methylsulfonyl)phenyl)amino)-5-(1-methyl-1H-pyrazol-3-yl)pyridin-2-yl)acetamide]: the IC50 in experiment [1] is 0.076 nM; in experiment [2] it was 15 nM; in the experiment on pSTAT5/GM-CSF, above 10 µM. For the same molecule, in the experiment with pSTAT5/GM-CSF, the “Selectivity fold (TYK2/JAK2)” value is above 668 fold.

Turning to `COCCOc1cc(Nc2cc(NC(C)=O)ncc2-c2cc3c(cn2)OCCO3)nc(S(C)(=O)=O)c1` [Example Q19, N-(5-(2,3-dihydro-[1,4]dioxino[2,3-c]pyridin-7-yl)-4-((4-(2-methoxyethoxy)-6-(methylsulfonyl)pyridin-2-yl)amino)pyridin-2-yl)acetamide], the IC50 in experiment [1] was 0.025 nM; in experiment [2], 3.02 nM; in the experiment on pSTAT5/GM-CSF, above 10 µM. The “Selectivity fold (TYK2/JAK2)” value in the experiment on pSTAT5/GM-CSF is given as above 3311 fold.

On to `CC(=O)Nc1cc(Nc2cc(OC(C)C)cc(S(C)(=O)=O)n2)c(-c2cc3c(cn2)NCCO3)cn1` [Example Q4, N-(5-(3,4-dihydro-2H-pyrido[4,3-b][1,4]oxazin-7-yl)-4-((4-isopropoxy-6-(methylsulfonyl)pyridin-yl)amino)pyridin-2-yl)acetamide], for which the IC50 in experiment [1] was 0.037 nM; in experiment [2] it was 1.1 nM; with pSTAT5/GM-CSF, above 10 µM. The “Selectivity fold (TYK2/JAK2)” value in the experiment on pSTAT5/GM-CSF was above 9090 fold.

In the case of `CC(=O)Nc1cc(Nc2cc(OC(C)C)cc(S(C)(=O)=O)n2)c(-c2ccc(C(F)(F)F)cn2)cn1` [Example F9, N-(4′-((4-isopropoxy-6-(methylsulfonyl)pyridin-2-yl)amino)-5-(trifluoromethyl)-[2,3′-bipyridin]-6′-yl)acetamide], the IC50 was 0.06 nM in experiment [1], 5.45 nM in experiment [2] and above 10 µM in the experiment with pSTAT5/GM-CSF. Also, the “Selectivity fold (TYK2/JAK2)” value in experiment [2] was above 1834 fold.

As to `CCn1ccc(-c2cnc(NC(C)=O)cc2Nc2cc(OC(C)C)cc(S(C)(=O)=O)n2)n1` [Example M6, N-(5-(1-ethyl-1H-pyrazol-3-yl)-4-((4-isopropoxy-6-(methylsulfonyl)pyridin-2-yl)amino)pyridin-2-yl)acetamide], the IC50 in experiment [1] is 0.032 nM; in experiment [2], 1.21 nM; in the experiment with pSTAT5/GM-CSF it was above 10 µM. Moreover, in the experiment with pSTAT5/GM-CSF, the “Selectivity fold (TYK2/JAK2)” value is above 8264 fold.

On to `CC(=O)Nc1cc(Nc2cc(C(F)(F)F)cc(S(C)(=O)=O)c2)c(-c2ccc(C(C)(C)O)cn2)cn1` [Example H3, N-(5-(2-hydroxypropan-2-yl)-4′-((3-(methylsulfonyl)-5-(trifluoromethyl)phenyl)amino)-[2,3′-bipyridin]-6′-yl)acetamide], for which the IC50 worked out at 0.048 nM in experiment [1], 8.52 nM in experiment [2] and 7.19 µM in the experiment on pSTAT5/GM-CSF. The “Selectivity fold (TYK2/JAK2)” value in experiment [2] was above 843 fold.

As to `CC(=O)Nc1cc(Nc2cc(C)cc(S(C)(=O)=O)n2)c(-c2ccc(C(C)(C)O)cn2)cn1` [Example H9, N-(5-(2-hydroxypropan-2-yl)-4′-((4-methyl-6-(methylsulfonyl)pyridin-2-yl)amino)-[2,3′-bipyridin]-6′-yl)acetamide], the IC50 in experiment [1] amounted to 0.016 nM; in experiment [2], 0.503 nM; in the experiment on pSTAT5/GM-CSF, 1.58 µM. In addition, in experiment [2], the “Selectivity fold (TYK2/JAK2)” value worked out at 3147 fold.

With `CC(=O)Nc1cc(Nc2cccc(S(C)(=O)=O)n2)c(-c2cc(C)n(C)n2)cn1` [Example N1, N-(5-(1,5-dimethyl-1H-pyrazol-3-yl)-4-((6-(methylsulfonyl)pyridin-2-yl)amino)pyridin-2-yl)acetamide], the IC50 in experiment [1] came to 0.077 nM; in experiment [2], 0.247 nM; in the experiment with pSTAT5/GM-CSF, 2.13 µM. Further, in the experiment on pSTAT5/GM-CSF, the “Selectivity fold (TYK2/JAK2)” value was found to be 8635 fold.

For the molecule `CC(=O)Nc1cc(Nc2cccc(S(=O)(=O)C3CC3)n2)c(-c2ccn(C)n2)cn1` [Example J28, N-(4-((6-(cyclopropylsulfonyl)py-ridin-2-yl)amino)-5-(1-methyl-1H-pyrazol-3-yl)pyridin-2-yl)acetamide], the IC50 in experiment [1] is 0.053 nM; in experiment [2] it was 3.14 nM; in the experiment on pSTAT5/GM-CSF, above 10 µM. For the same molecule, the “Selectivity fold (TYK2/JAK2)” value in the experiment with pSTAT5/GM-CSF was above 3184 fold.

Take `COc1cc(Nc2cc(NC(C)=O)ncc2-c2ccc(C(F)(F)F)cn2)nc(S(C)(=O)=O)c1` [Example F20, N-(4′-((4-methoxy-6-(methylsulfonyl)pyridin-2-yl)amino)-5-(trifluoromethyl)-[2,3′-bipyridin]-6′-yl)acetamide]: the IC50 in experiment [1] was 0.031 nM; in experiment [2], 1.45 nM; in the experiment on pSTAT5/GM-CSF, above 10 µM. Further, the “Selectivity fold (TYK2/JAK2)” value in experiment [2] is above 6896 fold.

Turning to `CC(=O)Nc1cc(Nc2cc(C)cc(S(C)(=O)=O)n2)c(-c2ccco2)cn1` [Example A9, N-(5-(furan-2-yl)-4-((4-methyl-6-(methylsulfonyl)pyridin-2-yl)amino)pyridin-2-yl)acetamide], the IC50 in experiment [1] was 0.041 nM; in experiment [2] it was 1.33 nM; in the experiment with pSTAT5/GM-CSF it was above 10 µM. For the same molecule, in experiment [2], the “Selectivity fold (TYK2/JAK2)” value is recorded as above 7518 fold.

For the molecule `CO[C@H](C)COc1cc(Nc2cc(NC(C)=O)ncc2-c2cc(C)n(C)n2)nc(S(C)(=O)=O)c1` [Example N6, (R)-N-(5-(1,5-dimethyl-1H-pyrazol-3-yl)-4-((4-(2-methoxypropoxy)-6-(methylsulfonyl)pyridin-2-yl)amino)pyridin-2-yl)acetamide], the values for the IC50 (in experiment [1]; in experiment [2]; in the experiment with pSTAT5/GM-CSF) were 0.039 nM, 0.274 nM and above 10 µM, respectively. In the experiment with pSTAT5/GM-CSF, the “Selectivity fold (TYK2/JAK2)” value is above 36496 fold.

Consider `CCn1ccc(-c2cnc(NC(C)=O)cc2Nc2nc(S(C)(=O)=O)ccc2OC(C)C)n1` [Example M21, N-(5-(1-ethyl-1H-pyrazol-3-yl)-4-((3-isopropoxy-6-(methylsulfonyl)pyridin-2-yl)amino)pyridin-2-yl)acetamide], for which the values for the IC50 (in experiment [1]; in experiment [2]; with pSTAT5/GM-CSF) were 0.035 nM, 1.69 nM and above 10 µM, respectively. Further, the “Selectivity fold (TYK2/JAK2)” value in the experiment with pSTAT5/GM-CSF is reported as above 5917 fold.

For the molecule `COCCOc1cc(Nc2cc(NC(C)=O)ncc2-c2ccc(COC)cn2)nc(S(C)(=O)=O)c1` [Example E5, N-(4′-((4-(2-methoxyethoxy)-6-(methylsulfonyl)pyridin-2-yl)amino)-5-(methoxymethyl)-[2,3′-bipyridin]-6′-yl)acetamide], the IC50 is 0.022 nM in experiment [1], 0.501 nM in experiment [2] and above 10 µM with pSTAT5/GM-CSF. Besides, the “Selectivity fold (TYK2/JAK2)” value in experiment [2] was above 19960 fold.
